# Reference: patent US8008258B2, “Cop 1 for treatment of inflammatory bowel diseases” (Yeda Research and Development Co. Ltd., priority 2003, dated 2011)
# Marks after values point to notes of the source that are not given here.
# How the values were obtained:
# TNBS-induced colitis = TNBS-induced colitis in SJL/J mice, various GA treatment modes; format: in vivo; design: key to Macroscopic scoring of colon damage: Ulceration (max 10): 0 = completely normal, 10 = most severe ulceration; key to Macroscopic scoring of colon damage: Adhesion (max 2): adhesion score, 0 to 2; key to Macroscopic scoring of colon damage: Diarrhea (max 1): diarrhea score, 0 to 1; key to Macroscopic scoring of colon damage: Thickness (max 1): thickness score, 0 to 1; details: for Decrease in the total histological score: statistically insignificant; for Macroscopic scoring of colon damage: Adhesion (max 2) / Macroscopic scoring of colon damage: Diarrhea (max 1) / Macroscopic scoring of colon damage: Thickness (max 1) / Macroscopic scoring of colon damage: Total Score (max 14) / Macroscopic scoring of colon damage: Ulceration (max 10): scoring 5 days after disease induction
# Procedure: Induction of cholitis in mice. TNBS-colitis was induced by rectal instillation of 2,4,6-trinitrobenzene sulfonic acid 5% (w/v), mixed with an equal volume of ethanol, into anesthetized mice (100 μl/mouse). Each treatment group included 6-12 mice. Mice that died before day 4 were considered as treatment casualties and were not taken into consideration.
# Assessment of colitis. Weight changes and survival were monitored daily. Five to eight days following TNBS instillation, mice were sacrificed and macroscopic as well as microscopic colonic damage was evaluated.
# Macroscopic colonic scoring. Gross colonic damage was graded according to Reuter et al. (1996), using the combined values of the four standard macroscopic parameters: degree of colonic ulcerations (scale from 0—completely normal, to 10—most severe); intestinal and peritoneal adhesions (0 to 2); diarrhea (0 to 1); and thickness (0 to 1). The total score is the arithmetic sum of the four scores. The evaluation was performed in a blind procedure.
# Microscopic scoring. Proximal, medial, and distal portions of colon were fixed in 10% phosphate-buffered formalin. Paraffin-embedded sections were stained with hematoxylin and eosin. The degree of histological damage and inflammation was graded according to Elson et al. (1996) using the combined values of the four microscopic parameters: extent (scale from 0—completely normal, to 2—involving more than one segment); inflammation (0—none to 3—severe); damage (0 to 3—severe transmural); and regeneration (0—complete re-eptihelization to 3—none). The total score is the arithmetic sum of the four scores. The evaluation was performed in a blind procedure.
# Oral treatment—250 μg/day in PBS, fed by gastric intubation with an 18-gauge stainless steel feeding needle. Unless otherwise stated, feedings were performed on days-7, -5, -3, -1, 0, 2, 4 and 6, relative to the day of TNBS instillation. […]
# To explore whether the beneficial effect of GA on TNBS-induced colitis is restricted to oral administration in the BALB/c strain or represents a more general effect, we studied the ability of GA administered by different routes and dosages to inhibit TNBS-induced colitis in two additional strains of mice.
# [1] = system: mesenteric lymph nodes (MLN) cells; assay: Lymphocyte proliferation (thymidine incorporation) in response to colonic extract, cells from colitis-induced mice; format: cell-based
# Procedure: FIGS. 4A-4F show the effect of GA on the lymphocyte proliferation in different mouse strains. The responses of normal mice, colitis-induced mice, and colitis-induced mice treated with GA orally or parenterally daily are compared in the BALB/c (FIGS. 4A, 4B), (SJL/JxBALB/c)F1 (FIGS. 4C, 4D), and SJL/J (FIGS. 4E, 4F) strains. Cells from spleens (FIGS. 4A, 4C, 4E) and mesenteric lymph nodes (MLN) (FIGS. 4B, 4D, 4F) were cultured, 7 days after disease induction, with no antigen, colonic extract (CE, 200 μg/ml), or GA (50 μg/ml). Results of thymidine incorporation are expressed as mean cpm±ISD of six culture wells and represent one of two similar experiments, using pooled cells from 3-5 mice in each group. # Indicates significant increase in the response to CE by colitic mice. * Indicates significant decrease in the response to CE induced by GA treatment.
# Colon extract. Colons of syngeneic normal mice were cut into small strips and homogenized. The homogenate was diluted in PBS and passed through glass wool. Protein quantity was measured by using a protein assay kit (Bio-Rad, Richmond, Calif.).
# (§1) Reactivity assays. Spleens and mesenteric lymph nodes (MLN) cells (0.5×10^6 cell/well) were cultured with either GA (50 μg/ml), colon extract (200 μg/ml), immobilized anti-CD3 (5 μg/ml), or PBS control, in a final volume of 250 μl/well (6 wells for each antigen). For proliferation assay, cells were cultured in RPMI 1640 with 10% FCS, pulsed with 1 μCi of [3H] thymidine after 48 h incubation, and harvested 12 h later. For cytokine (TNF-α and TGF-β) assay, cells were cultured in serum-free medium (DCCM-1), supernatants were collected after 72 h, and tested for the cytokines by ELISA using mAbs pairs (R&D Systems, Minneapollis, Minn.) according to the manufacturer's instruction.
# [2] = system: TNF-α secretion by spleen and MLN cells; assay: TNF-α secretion by spleen and MLN cells (ELISA); format: cell-based, mice
# Procedure: FIGS. 5A-5C show the effect of GA on TNF-α secretion in different mouse strains. The responses of normal mice, colitis-induced mice, and colitis-induced mice treated with GA orally or parenterally daily are compared in the BALB/c (FIG. 5A), (SJL/JxBALB/c)F1 (FIG. 5B), and SJL/J (FIG. 5C) strains. Cells from spleens and mesenteric lymph nodes (MLN) were cultured, 7 days after disease induction, with immobilized anti-CD3 (5 μg/ml). After 24 hours, supernatants from six culture wells were pooled and TNF-α was measured by ELISA in duplicates. Results are expressed as TNF-α concentration (pg/ml±SD) and represent one of two similar experiments, using pooled cells from 3-5 mice in each group. # Indicates significant increase in TNF-α in colitic mice in comparison to normal mice. * Indicates significant decrease in TNF-α induced by GA treatment in comparison to untreated colitis induced mice.
# as §1
# DSS-induced colitis = assay: Dextran sulfate sodium (DSS)-induced colitis in C57BL/6 mice; format: in vivo; details: GA 2.5 mg/day SC daily, by day 7 after DSS feeding, preliminary experiment
# Procedure: Feeding mice for several days with dextran sulfate sodium (DSS) polymers in the drinking water induces an acute colitis with bloody diarrhea, histological damage, and inflammation (Wirtz and Neurath, 2000).
# Female C57BL/6, 7 weeks old mice, were fed with 2.5% DSS solution in the drinking water for 7 days. GA was administered subcutaneously by daily injections—2.5 mg/day, in PBS, starting either 7 days before or in the same day of DSS feeding.
# [3] = GA injected daily (from day −7), 2.5 mg/mouse SC
# [4] = GA oral every other day (from day −7), 0.25 mg, 8 feedings
substance,measurement,setting,value
glatiramer acetate [GA],Reduction in macroscopic score versus untreated control,TNBS-induced colitis; GA daily injections from day −7,2.7 fold
same,Mortality (succumbed),TNBS-induced colitis; daily injection of GA,8%
same,Inhibition of weight loss caused by TNBS colitis,TNBS-induced colitis; daily-injected mice,major significant inhibition of weight loss
same,Decrease in the total histological score,TNBS-induced colitis; feeding,0.5 points
same,Decrease in the total histological score,TNBS-induced colitis; injection,1.8 points
same,Decrease in the total macroscopic score versus untreated mice,TNBS-induced colitis; oral treatment with GA,1.7 Points
same,Mortality rate,"TNBS-induced colitis; oral treatment with GA, by day 5",18%
same,Inhibition of weight loss caused by TNBS colitis,TNBS-induced colitis; orally-treated mice,"modest, statistically insignificant, inhibition of weight loss"
same,Macroscopic scoring of colon damage: Adhesion (max 2),TNBS-induced colitis; [3],1.2
same,Macroscopic scoring of colon damage: Diarrhea (max 1),TNBS-induced colitis; [3],0.5
same,Macroscopic scoring of colon damage: Thickness (max 1),TNBS-induced colitis; [3],0.5
same,Macroscopic scoring of colon damage: Total Score (max 14),TNBS-induced colitis; [3],5.7*
same,Macroscopic scoring of colon damage: Ulceration (max 10),TNBS-induced colitis; [3],3.5
same,Macroscopic scoring of colon damage: Adhesion (max 2),TNBS-induced colitis; [4],1.8
same,Macroscopic scoring of colon damage: Diarrhea (max 1),TNBS-induced colitis; [4],0.9
same,Macroscopic scoring of colon damage: Thickness (max 1),TNBS-induced colitis; [4],0.9
same,Macroscopic scoring of colon damage: Total Score (max 14),TNBS-induced colitis; [4],10.7
same,Macroscopic scoring of colon damage: Ulceration (max 10),TNBS-induced colitis; [4],7.1
same,Inhibition of the MLN proliferation response to colonic extract by GA treatment,[1]; MLN from (SJL/JxBALB/c)F1 mice treated either orally or parenterally with GA,complete inhibition
same,Inhibition of the local MLN proliferation response to colonic extract by GA treatment,"[1]; MLN from BALB/c, colonic extract 200 μg/ml, 7 days after disease induction",66%
same,Inhibition of the MLN proliferation response to colonic extract by GA treatment,[1]; MLN from SJL/J mice treated either orally or parenterally with GA,complete inhibition
same,Effect of GA treatment on TNF-α levels,[2]; SJL/J mice parenterally treated daily with GA,drastic decrease in TNF-α levels
same,Effect of GA treatment on TNF-α secretion in response to anti-CD3,"[2]; all strains, both spleens and MLN, all instances except MLN of SJL/J mice treated orally with GA",substantial reduction in TNF-α
same,TNF-α secretion on in vitro stimulation,[2]; in vitro stimulation of cells by GA (50 μg/ml),did not result in secretion of TNF-α
same,Maximum weight loss,DSS-induced colitis; injected from day 0,4%
same,Maximum weight loss,DSS-induced colitis; injected from day −7,7%
